Assay results from article PMC10175918 (Communications Biology, 2023).
Like-named read-outs stand apart in the source and are kept apart here.

What was measured:
Assay in all cases: TGFα-shedding assay-based GPCR screening with chimeric Gα subunit proteins
Assay type in all cases: cell-based
348 GPCRs [1] = biological target: T1, 348 GPCRs (Homo sapiens, UniProt Q9NQS5); settings: 10µM, Favipiravir 100μM
T1 construct: expressed in transfected cells; host or cells: HEK293A

348 GPCRs [2] = biological target: T2, 348 GPCRs (Homo sapiens, UniProt Q8IZF4)
T2 construct: expressed in transfected cells; host or cells: HEK293A
T2 sequence (Q8IZF4 22-528): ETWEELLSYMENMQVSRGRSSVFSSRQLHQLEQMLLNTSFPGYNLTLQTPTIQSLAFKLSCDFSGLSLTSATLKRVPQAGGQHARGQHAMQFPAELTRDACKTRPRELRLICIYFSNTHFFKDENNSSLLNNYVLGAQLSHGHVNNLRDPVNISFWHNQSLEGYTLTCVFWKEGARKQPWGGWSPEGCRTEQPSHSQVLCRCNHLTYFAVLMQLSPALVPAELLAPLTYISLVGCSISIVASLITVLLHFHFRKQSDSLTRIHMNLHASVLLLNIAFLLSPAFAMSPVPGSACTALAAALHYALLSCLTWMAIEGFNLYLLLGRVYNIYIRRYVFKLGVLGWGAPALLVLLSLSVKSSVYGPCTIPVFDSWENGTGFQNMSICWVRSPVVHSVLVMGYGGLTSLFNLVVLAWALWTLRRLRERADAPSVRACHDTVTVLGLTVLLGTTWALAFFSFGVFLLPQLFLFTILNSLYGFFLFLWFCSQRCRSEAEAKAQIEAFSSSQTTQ

348 GPCRs [3] = biological target: T3, 348 GPCRs (Homo sapiens, UniProt Q9GZQ6); settings: 10µM, Favipiravir 100μM
T3 construct: expressed in transfected cells; host or cells: HEK293A

348 GPCRs [4] = biological target: T4, 348 GPCRs (Homo sapiens, UniProt Q16538); settings: 10µM, Favipiravir 100μM
T4 construct: expressed in transfected cells; host or cells: HEK293A

348 GPCRs [5] = biological target: T5, 348 GPCRs (Homo sapiens, UniProt Q9HBW0); settings: 10µM, Favipiravir 100μM
T5 construct: expressed in transfected cells; host or cells: HEK293A

348 GPCRs [6] = biological target: T6, 348 GPCRs (Homo sapiens, UniProt Q9P1P5); settings: 10µM, Favipiravir 100μM
T6 construct: expressed in transfected cells; host or cells: HEK293A
T6 sequence (Q9P1P5 1-351): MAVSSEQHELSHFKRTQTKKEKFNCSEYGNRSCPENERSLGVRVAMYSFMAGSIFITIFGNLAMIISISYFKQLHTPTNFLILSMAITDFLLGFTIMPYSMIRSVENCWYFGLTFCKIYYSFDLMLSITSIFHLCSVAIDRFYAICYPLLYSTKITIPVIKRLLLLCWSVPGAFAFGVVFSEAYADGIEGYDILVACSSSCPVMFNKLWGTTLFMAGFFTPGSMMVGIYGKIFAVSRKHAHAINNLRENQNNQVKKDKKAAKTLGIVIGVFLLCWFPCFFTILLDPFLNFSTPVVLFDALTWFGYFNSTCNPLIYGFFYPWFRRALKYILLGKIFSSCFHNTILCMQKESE

348 GPCRs [7] = biological target: T7, 348 GPCRs (Homo sapiens, UniProt Q7Z602); settings: 10µM, Favipiravir 100μM
T7 construct: expressed in transfected cells; host or cells: HEK293A

348 GPCRs [8] = biological target: T8, 348 GPCRs (Homo sapiens, UniProt Q9UKP6); settings: 10µM, Favipiravir 100μM
T8 construct: expressed in transfected cells; host or cells: HEK293A
T8 sequence (Q9UKP6 1-389): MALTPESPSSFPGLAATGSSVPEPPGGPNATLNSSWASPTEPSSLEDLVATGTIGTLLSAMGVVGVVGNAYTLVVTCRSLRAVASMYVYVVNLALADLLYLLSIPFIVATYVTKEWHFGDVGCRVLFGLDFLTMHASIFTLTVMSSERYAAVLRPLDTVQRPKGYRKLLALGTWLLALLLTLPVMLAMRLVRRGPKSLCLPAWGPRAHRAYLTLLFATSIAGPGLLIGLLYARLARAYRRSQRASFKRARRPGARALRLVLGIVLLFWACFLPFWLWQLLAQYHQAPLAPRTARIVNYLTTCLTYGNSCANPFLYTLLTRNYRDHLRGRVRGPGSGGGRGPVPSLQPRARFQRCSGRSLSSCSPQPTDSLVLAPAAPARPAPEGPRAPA

348 GPCRs [9] = biological target: T9, 348 GPCRs (Homo sapiens, UniProt Q8TDV2); settings: 10µM, Favipiravir 100μM
T9 construct: expressed in transfected cells; host or cells: HEK293A

348 GPCRs [10] = biological target: T10, 348 GPCRs (Homo sapiens, UniProt P30411); settings: 10µM, Favipiravir 100μM
T10 sequence (P30411 1-391): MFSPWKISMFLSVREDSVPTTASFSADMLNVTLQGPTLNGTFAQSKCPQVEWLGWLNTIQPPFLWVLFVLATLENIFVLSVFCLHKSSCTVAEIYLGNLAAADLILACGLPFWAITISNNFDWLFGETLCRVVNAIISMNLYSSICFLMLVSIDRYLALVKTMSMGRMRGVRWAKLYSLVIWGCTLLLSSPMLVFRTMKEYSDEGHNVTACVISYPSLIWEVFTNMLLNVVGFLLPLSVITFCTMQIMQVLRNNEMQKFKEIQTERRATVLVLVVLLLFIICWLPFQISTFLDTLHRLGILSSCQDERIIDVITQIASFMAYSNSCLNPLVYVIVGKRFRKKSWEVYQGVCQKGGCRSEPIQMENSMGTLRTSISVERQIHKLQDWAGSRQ

[11] = GPR84 (G protein-coupled receptor 84), read-out: % GPCR activation compared to TPA
[12] = GPCR GPR114 (G-protein-coupled receptor 114 (ADGRG5)), read-out: % GPCR activation compared to TPA
[13] = NPFFR1 (neuropeptide FF receptor 1), read-out: % GPCR activation compared to TPA
[14] = GPR162 (G Protein-Coupled Receptor 162), read-out: % GPCR activation compared to TPA
[15] = LPAR2 (lysophosphatidic acid receptor 2), read-out: % GPCR activation compared to TPA
[16] = TAAR2 (trace amine associated receptor 2), read-out: % GPCR activation compared to TPA
[17] = GPR141 (G Protein-Coupled Receptor 141), read-out: % GPCR activation compared to TPA
[18] = UTS2R (urotensin 2 receptor), read-out: % GPCR activation compared to TPA
[19] = GPR148 (G Protein-Coupled Receptor 148), read-out: % GPCR activation compared to TPA
[20] = B2 (bradykinin receptor B2), read-out: % GPCR activation compared to TPA
[21] = read-out: % GPCR activation compared to TPA, GPR84 (G protein-coupled receptor 84)
[22] = read-out: % GPCR activation compared to TPA, GPCR GPR114 (G-protein-coupled receptor 114 (ADGRG5))
[23] = read-out: % GPCR activation compared to TPA, NPFFR1 (neuropeptide FF receptor 1)
[24] = read-out: % GPCR activation compared to TPA, GPR162 (G Protein-Coupled Receptor 162)
[25] = read-out: % GPCR activation compared to TPA, LPAR2 (lysophosphatidic acid receptor 2)
[26] = read-out: % GPCR activation compared to TPA, TAAR2 (trace amine associated receptor 2)
[27] = read-out: % GPCR activation compared to TPA, GPR141 (G Protein-Coupled Receptor 141)
[28] = read-out: % GPCR activation compared to TPA, UTS2R (urotensin 2 receptor)
[29] = read-out: % GPCR activation compared to TPA, GPR148 (G Protein-Coupled Receptor 148)
[30] = read-out: % GPCR activation compared to TPA, B2 (bradykinin receptor B2)

T5 sequence (Q9HBW0 whole entry): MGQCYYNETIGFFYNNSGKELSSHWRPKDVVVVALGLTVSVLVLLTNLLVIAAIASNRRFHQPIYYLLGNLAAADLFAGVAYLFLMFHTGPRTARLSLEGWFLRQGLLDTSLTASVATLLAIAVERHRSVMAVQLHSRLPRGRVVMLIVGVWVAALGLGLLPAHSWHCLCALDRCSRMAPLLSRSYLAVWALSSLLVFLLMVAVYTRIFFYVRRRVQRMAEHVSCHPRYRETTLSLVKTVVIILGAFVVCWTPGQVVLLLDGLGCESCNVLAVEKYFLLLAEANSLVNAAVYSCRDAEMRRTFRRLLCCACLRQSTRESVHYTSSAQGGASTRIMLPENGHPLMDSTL
T9 sequence (Q8TDV2 whole entry): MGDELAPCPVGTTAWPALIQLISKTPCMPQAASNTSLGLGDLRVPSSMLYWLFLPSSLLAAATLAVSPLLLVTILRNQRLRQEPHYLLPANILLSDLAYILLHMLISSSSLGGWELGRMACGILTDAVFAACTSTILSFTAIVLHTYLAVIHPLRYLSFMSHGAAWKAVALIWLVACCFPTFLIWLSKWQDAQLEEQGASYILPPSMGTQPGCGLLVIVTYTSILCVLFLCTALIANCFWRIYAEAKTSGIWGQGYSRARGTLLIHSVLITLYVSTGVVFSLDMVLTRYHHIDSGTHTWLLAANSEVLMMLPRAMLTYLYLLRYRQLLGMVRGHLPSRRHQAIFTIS
T4 sequence (Q16538 whole entry): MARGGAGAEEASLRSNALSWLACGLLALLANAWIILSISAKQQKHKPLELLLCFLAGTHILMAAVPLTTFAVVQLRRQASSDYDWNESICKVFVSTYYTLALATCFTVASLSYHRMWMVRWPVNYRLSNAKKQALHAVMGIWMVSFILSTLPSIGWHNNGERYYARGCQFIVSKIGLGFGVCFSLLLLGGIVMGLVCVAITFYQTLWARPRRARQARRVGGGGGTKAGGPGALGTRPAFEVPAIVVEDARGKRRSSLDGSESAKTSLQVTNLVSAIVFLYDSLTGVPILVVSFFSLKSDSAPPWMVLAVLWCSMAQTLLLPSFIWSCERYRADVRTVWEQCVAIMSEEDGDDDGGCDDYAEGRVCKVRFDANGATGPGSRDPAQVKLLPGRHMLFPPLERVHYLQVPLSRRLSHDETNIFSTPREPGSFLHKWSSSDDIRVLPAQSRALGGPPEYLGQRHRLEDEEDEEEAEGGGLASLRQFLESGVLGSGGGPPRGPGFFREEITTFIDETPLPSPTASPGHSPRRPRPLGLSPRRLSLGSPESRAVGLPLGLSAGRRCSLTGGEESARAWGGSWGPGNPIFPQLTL
T3 sequence (Q9GZQ6 whole entry): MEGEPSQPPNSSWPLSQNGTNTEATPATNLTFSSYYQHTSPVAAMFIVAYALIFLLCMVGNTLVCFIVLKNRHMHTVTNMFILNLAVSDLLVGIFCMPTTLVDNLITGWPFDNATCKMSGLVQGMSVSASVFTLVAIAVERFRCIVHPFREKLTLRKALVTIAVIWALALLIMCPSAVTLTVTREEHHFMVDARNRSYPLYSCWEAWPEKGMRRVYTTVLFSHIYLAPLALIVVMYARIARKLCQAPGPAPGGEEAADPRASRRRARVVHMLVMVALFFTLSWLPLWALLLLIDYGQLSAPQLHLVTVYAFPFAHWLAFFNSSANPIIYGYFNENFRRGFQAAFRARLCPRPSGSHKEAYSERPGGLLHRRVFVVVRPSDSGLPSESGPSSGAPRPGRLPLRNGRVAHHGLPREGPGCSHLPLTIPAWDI
T1 sequence (Q9NQS5 whole entry): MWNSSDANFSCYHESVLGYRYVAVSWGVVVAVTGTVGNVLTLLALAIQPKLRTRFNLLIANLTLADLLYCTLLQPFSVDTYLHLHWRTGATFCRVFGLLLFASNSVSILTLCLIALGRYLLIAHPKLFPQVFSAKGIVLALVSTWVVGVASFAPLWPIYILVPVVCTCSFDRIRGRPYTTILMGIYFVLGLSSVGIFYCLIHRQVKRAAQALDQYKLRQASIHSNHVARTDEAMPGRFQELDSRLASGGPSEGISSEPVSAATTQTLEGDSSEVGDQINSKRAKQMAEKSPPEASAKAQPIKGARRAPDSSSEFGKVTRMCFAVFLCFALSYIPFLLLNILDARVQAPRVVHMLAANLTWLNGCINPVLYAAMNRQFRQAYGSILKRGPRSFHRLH
T7 sequence (Q7Z602 whole entry): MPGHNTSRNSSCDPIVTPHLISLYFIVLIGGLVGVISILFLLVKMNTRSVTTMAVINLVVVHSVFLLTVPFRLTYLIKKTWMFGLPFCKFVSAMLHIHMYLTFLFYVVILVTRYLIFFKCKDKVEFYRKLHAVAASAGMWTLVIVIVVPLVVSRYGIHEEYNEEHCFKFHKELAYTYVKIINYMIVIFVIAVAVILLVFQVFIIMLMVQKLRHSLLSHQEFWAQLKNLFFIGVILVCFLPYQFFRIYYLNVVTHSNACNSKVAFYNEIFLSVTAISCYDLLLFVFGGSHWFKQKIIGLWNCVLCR

Compound | activation at 100 µM (348 GPCRs [1]; [11]) | activation at 10 µM (348 GPCRs [2]; [12]) | activation at 10 µM (348 GPCRs [3]; [13]) | activation at 10 µM (348 GPCRs [4]; [14]) | activation at 10 µM (348 GPCRs [5]; [15]) | activation at 100 µM (348 GPCRs [6]; [16]) | activation at 100 µM (348 GPCRs [7]; [17]) | activation at 10 µM (348 GPCRs [8]; [18]) | activation at 100 µM (348 GPCRs [9]; [19]) | activation at 10 µM (348 GPCRs [10]; [20]) | activation at 100 µM (348 GPCRs [1]; [21]) | activation at 10 µM (348 GPCRs [2]; [22]) | activation at 10 µM (348 GPCRs [3]; [23]) | activation at 10 µM (348 GPCRs [4]; [24]) | activation at 10 µM (348 GPCRs [5]; [25]) | activation at 100 µM (348 GPCRs [6]; [26]) | activation at 100 µM (348 GPCRs [7]; [27]) | activation at 10 µM (348 GPCRs [8]; [28]) | activation at 100 µM (348 GPCRs [9]; [29]) | activation at 10 µM (348 GPCRs [10]; [30]) | also measured
N#C[C@@]1(c2ccc3c(N)ncnn23)O[C@H](CO)[C@@H](O)[C@H]1O [GS441524] | 5.15% | -2.76% | 1.07% | -0.758% | -0.123% | -1.42% | -0.309% | -11.4% | -2.05% | -3% |  |  |  |  |  |  |  |  |  |  | 
CC(C)OC(=O)[C@H](C)N[P@](=O)(OC[C@H]1O[C@@H](n2ccc(=O)[nH]c2=O)[C@](C)(F)[C@@H]1O)Oc1ccccc1 [sofosbuvir] |  |  |  |  |  |  |  |  |  |  | -3.67% | 0.492% | -1.9% | 0.48% | 2.99% | -0.403% | -0.925% | -2.85% | -1.48% | 0.561% | 
CCC(CC)COC(=O)[C@H](C)N[P@](=O)(OC[C@H]1O[C@@](C#N)(c2ccc3c(N)ncnn23)[C@H](O)[C@@H]1O)Oc1ccccc1 [remdesivir] |  |  |  |  |  |  |  |  |  |  | 2.57% | -1.51% | -0.49% | 2.55% | 1.11% | 1.05% | -1.45% | 46.9% | -2.35% | 1.57% | 
CC(C)C(=O)OC[C@H]1O[C@@H](n2ccc(NO)nc2=O)[C@H](O)[C@@H]1O [molnupiravir] | -3.53% | -2.86% | -0.462% | -1.64% | 2.59% | -0.153% | -1.57% | -8.44% | -3.32% | 1.04% |  |  |  |  |  |  |  |  |  |  | 
NC(=O)c1nc(F)cnc1O [favipiravir, 6-fluoro-3-hydroxy-2-pyrazinecarboxamide] | -0.768% |  | -3.31% | -1.13% | 1.47% | 0.753% | -0.646% | -4.11% | -3.11% | 1.08% |  |  |  |  |  |  |  |  |  |  | activation at 100 µM (348 GPCRs [2]; GPCR GPR114 (G-protein-coupled receptor 114 (ADGRG5)), 100μM, read-out: % GPCR activation compared to TPA): -2.55%
